The values that follow are results of earlier work, collected in patent US12029798B2, “Pre-targeting strategies for molecular imaging and/or radioimmunotherapy” (UNIVERSITY OF PITTSBURGH—OF THE COMMONWEALTH SYSTEM OF …, priority 2016, dated 2024).

For the data set the following is noted: reaction with azides.

Consider oxa-dibenzocyclooctynes [ODIBO], for which the cycloaddition rate is 43 M^−1S^−1.
